# Source: patent US20220298145A1, “BRAF INHIBITORS AS PARADOX BREAKERS” (Hoffmann-La Roche Inc., priority 2019, published 2022)
# Legend:
# BRAF (V600E) = BRAF (V600E) (Homo sapiens, UniProt P15056, V600E); assay: Kd for RAF kinases: BRAF (V600E); format: binding
# BRAF = BRAF (Homo sapiens, UniProt P15056); assay: Kd for RAF kinases: BRAF; format: binding
# CRAF = CRAF (Homo sapiens, UniProt P04049); assay: Kd for RAF kinases: CRAF; format: binding
# [1] = system: ERK 1,2 phosphorylation in A375 cells expressing V600E mutated BRAF; assay: HTRF assay for P-ERK determination in A375 cells (BRAF inhibition); format: cell-based; details: Homo sapiens, A-375, 1 h, read-out: pERK IC50 A375
# Excerpt: (§1) DMEM no-phenol red medium supplemented with L-glutamine was purchased from (Thermo Fisher Scientific). Fetal bovine serum (FBS) was purchased from VWR. Advanced ERK phospho-T202/Y204 kit-10,000 tests was purchased from Cisbio cat #64AERPEH. A375 and HCT116 cells were originally obtained from ATCC and banked by the Roche repository.
# A375 is a cellular cancer model expressing V600E mutated BRAF and HCT116 a cellular cancer model expressing WT BRAF. […] ERK 1,2 phosphorylation (terminal member of the phosphorylation cascade of the MAPK pathway) is hereafter reported as main readout for the activation status of the MAPK pathway. Prior to the assay, A375 and HCT116 cell lines are maintained in DMEM no-phenol red medium supplemented with 10% fetal bovine serum (FBS). […] Briefly, 8000 cells/well in 12 μl media/well are plated in the 384-well plate and left overnight in the incubator (at 37° C. with 5% CO2-humidified atmosphere), the following day the plate is treated in duplicate with test compounds, dabrafenib and PLX8394 (the latter two as controls) at the following final drug concentrations: 10 μM-3 μM-1 μM-0.3 μM-0.1 μM-0.03 μM-0.01 μM-0.003 μM-0.001 μM, all wells are subjected to DMSO normalization and drug incubation occurs for 1 hour. Then, 4 μl of a 4× lysis buffer supplied with the kit are added to the wells, the plate is then centrifuged for 30 second (300 rcf) and incubated on a plate shaker for 1 h at RT.
# (§2) At the end of the incubation 4 μL/well of advanced P-ERK antibody solution (prepared according to manufacturer's instruction) followed by 4 μL/well of criptate P-ERK antibody solution (prepared according to manufacturer's instruction) (Cisbio cat #64AERPEH) are added to test wells.
# (§3) In order to allow proper data normalization control wells non drug treated reported in the following table are always included in each plate (according to manufacturer's instruction):
# (§4) The plate is then centrifuged at 300 rcf for 30 second, sealed to prevent evaporation and incubated overnight in the dark at room temperature.
# (§5) The obtained fluorescence values are processed according to the formula Ratio=Signal (620 nm)/Signal (625 nm)*10000 then the average of the ratio on the blank is subtracted to all values.
# Data are normalized in the case of A375 cells (BRAF inhibition) considering the average of the ratio (blank subtracted) derived by DMSO only treated cells as 100% and by considering the average of the ratio (blank subtracted) derived by 10 uM dabrafenib treated cells as 0%. Mean of the normalized points are fitted with sigmoidal curve and IC50 determined.
# [2] = system: ERK 1,2 phosphorylation in HCT116 cells expressing WT BRAF; assay: HTRF assay for P-ERK determination in HCT116 cells (paradoxical BRAF activation); format: cell-based; details: for Emax: Homo sapiens, HCT-116, read-out: Percentage of maximum paradox inducing effect from dabrafenib; for EC50: read-out: P-ERK EC50 conc. at which the compound induces p-ERK activation of 50% of that induced by dabrafenib (Positive control paradox inducer) HCT-116, HCT-116 cells, 1 hour drug incubation, not applicable = activation does not reach 50% of dabrafenib maximum
# Excerpt: as §1, with “repository. 384-well microplates were purchased from Greiner Bio-One, 384-well, (With Lid, HiBase, Low volume cat 784-080).” for “repository.”
# A375 is a cellular cancer model expressing V600E mutated BRAF and HCT116 a cellular cancer model expressing WT BRAF. First generation BRAF inhibitors such as e.g. dabrafenib induce a paradox effect on tumour cells in that they inhibit the growth of V600E mutated BRAF cells (such as e.g. A375), while they activate growth in WT BRAF cells (such as e.g. HCT 116). ERK 1,2 phosphorylation (terminal member of the phosphorylation cascade of the MAPK pathway) is hereafter reported as main readout for the activation status of the MAPK pathway. Prior to the assay, A375 and HCT116 cell lines are maintained in DMEM no-phenol red medium supplemented with 10% fetal bovine serum (FBS). Following compound treatment, P-ERK levels are determined by measuring FRET fluorescence signal induced by selective binding of 2 antibodies provided in the mentioned kit (Cisbio cat #64AERPEH) on ERK protein when phosphorylated at Thr202/Tyr204. Briefly, 8000 cells/well in 12 μl media/well are plated in the 384-well plate and left overnight in the incubator (at 37° C. with 5% CO2-humidified atmosphere), the following day the plate is treated in duplicate with test compounds, dabrafenib and PLX8394 (the latter two as controls) at the following final drug concentrations: 10 μM-3 μM-1 μM-0.3 μM-0.1 μM-0.03 μM-0.01 μM-0.003 μM-0.001 μM, all wells are subjected to DMSO normalization and drug incubation occurs for 1 hour. Then, 4 μl of a 4× lysis buffer supplied with the kit are added to the wells, the plate is then centrifuged for 30 second (300 rcf) and incubated on a plate shaker for 1 h at RT.
# as §2, §3, §4
# The plate is then analyzed and fluorescence emission value collected through a Pherastast FSX (BMG Labtech) apparatus at […].
# as §5
# Data are normalized in the case of HCT116 cells (BRAF activation) considering the average of the ratio (blank subtracted) derived by DMSO only treated cells as 0% and by considering the average of the ratio (blank subtracted) derived by dabrafenib treated cells at the concentration which provides the highest signal as 100%. Individual points are fitted with either sigmoidal or bell shape curves, and the percentage of activation compared to maximum dabrafenib-mediated activation is determined. The EC50 is the concentration at which activation equal to 50% of the maximum achieved by dabrafenib is obtained.
# The Percentage of Maximum paradox inducing effect from dabrafenib is determined by evaluating the percentage at which the test compound induce its maximum P-ERK signal as percentage of the highest signal produced by dabrafenib within the dose range tested.
# Chain of BRAF (V600E) (P15056 whole entry V600E): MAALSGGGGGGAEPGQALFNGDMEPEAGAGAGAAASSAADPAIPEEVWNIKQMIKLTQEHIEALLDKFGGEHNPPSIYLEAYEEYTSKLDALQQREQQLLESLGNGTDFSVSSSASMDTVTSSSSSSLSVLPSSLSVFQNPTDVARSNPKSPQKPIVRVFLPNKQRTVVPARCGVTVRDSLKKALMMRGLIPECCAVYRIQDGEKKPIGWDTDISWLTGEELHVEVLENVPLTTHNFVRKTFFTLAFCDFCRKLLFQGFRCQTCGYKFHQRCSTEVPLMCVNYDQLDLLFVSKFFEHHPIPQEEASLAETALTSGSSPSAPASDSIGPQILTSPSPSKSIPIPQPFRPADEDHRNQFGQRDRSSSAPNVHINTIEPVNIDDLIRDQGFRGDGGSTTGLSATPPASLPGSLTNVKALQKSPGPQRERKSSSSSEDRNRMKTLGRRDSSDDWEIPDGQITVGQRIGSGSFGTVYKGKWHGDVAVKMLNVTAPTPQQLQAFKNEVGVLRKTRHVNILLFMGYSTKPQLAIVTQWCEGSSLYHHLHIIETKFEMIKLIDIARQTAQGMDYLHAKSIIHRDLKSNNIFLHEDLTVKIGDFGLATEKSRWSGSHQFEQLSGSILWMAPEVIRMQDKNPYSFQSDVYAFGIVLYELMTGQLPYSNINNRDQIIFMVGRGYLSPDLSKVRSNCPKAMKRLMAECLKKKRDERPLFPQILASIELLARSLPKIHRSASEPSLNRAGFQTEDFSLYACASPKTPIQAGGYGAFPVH
# Chain of BRAF (P15056 whole entry): as the sequence (P15056 whole entry V600E) above, with E600V counted along it
# Chain of CRAF (P04049 whole entry): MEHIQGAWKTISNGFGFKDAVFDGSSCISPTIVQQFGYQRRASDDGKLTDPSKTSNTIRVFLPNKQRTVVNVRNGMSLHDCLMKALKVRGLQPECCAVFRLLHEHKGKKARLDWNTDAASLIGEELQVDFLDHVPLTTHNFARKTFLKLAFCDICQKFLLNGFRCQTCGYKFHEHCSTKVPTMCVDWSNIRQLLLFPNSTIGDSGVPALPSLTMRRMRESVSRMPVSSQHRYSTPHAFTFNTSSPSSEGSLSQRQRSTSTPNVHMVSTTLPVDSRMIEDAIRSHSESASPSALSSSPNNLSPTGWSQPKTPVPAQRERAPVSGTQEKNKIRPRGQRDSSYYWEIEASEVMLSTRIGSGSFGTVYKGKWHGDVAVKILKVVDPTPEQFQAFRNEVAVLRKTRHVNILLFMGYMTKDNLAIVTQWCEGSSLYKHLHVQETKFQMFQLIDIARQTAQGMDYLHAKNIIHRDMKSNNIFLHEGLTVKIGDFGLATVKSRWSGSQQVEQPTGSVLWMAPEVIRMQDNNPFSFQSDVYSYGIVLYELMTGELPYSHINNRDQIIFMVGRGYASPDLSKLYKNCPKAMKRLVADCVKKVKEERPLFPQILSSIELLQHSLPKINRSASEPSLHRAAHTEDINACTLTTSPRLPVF
Kd (BRAF (V600E)) [nM],Kd (BRAF) [nM],Kd (CRAF) [nM],IC50 [1] [nM],EC50 [2] [nM],Structure (SMILES),Emax [2] [%]
1.9,1,0.7,2.3,152,"Cn1cnc2ccc(Oc3c(F)ccc(NS(=O)(=O)C4CCCC4)c3C#N)cc2c1=O [Example 16, N-[2-cyano-4-fluoro-3-(3-methyl-4-oxo-quinazolin-6-yl)oxy-phenyl]cyclopentanesulfonamide]",70
4.3,1.7,3,2.6,970,"CN(C)S(=O)(=O)Nc1ccc(F)c(Oc2ccc3ncn(C)c(=O)c3c2)c1C#N [Example 17, 6-[2-cyano-3-(dimethylsulfamoylamino)-6-fluoro-phenoxy]-3-methyl-4-oxo-quinazoline]",71
